Experimental data from ChEMBL document CHEMBL1201862, “PubChem BioAssay data set” (2004).
Activity calls are given as the source filed them. Cut-off read from the data, not from the text of the source, for most assays here: actives have a measured EC50 and inactives only a lower limit.

How the values were obtained:
[1] = growth suppression of beta-catenin-knockout colon cells, dose response, cell-based, HCT116, human colon tumor (AID 1045); format: functional;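 note: HCT116 colon tumor cells with beta catenin knocked out; cells exposed to compound for 60 hours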
[2] = growth suppression of PTEN-null colon cells, dose response, cell-based, HCT116 PTEN knockout (AID 1047); format: functional;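 note: HCT116 colon tumor cells with PTEN knocked out; cells exposed to compound for 60 hours before readout; potency for loss of cell viability measured by luminescence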
[3] = C. albicans growth with fluconazole, confirmation, fluorescence, retest (AID 2467); format: functional, cell-based
[4] = NIH-3T3 fibroblast cytotoxicity, dose response, cytotoxicity control, cell-based, fluorescence, Alamar Blue, secondary assay (AID 2327); format: functional;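 note: NIH-3T3 mouse fibroblasts cultured with fluconazole at 8 µg/mL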
H9c2 = experiment: cells; format: functional, cell-based; settings: Rattus norvegicus, H9c2, Myocardium;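 note: confirmatory concentration-response retest of ultra-high-throughput screening hits for modulation of myocardial damage; cell death induced by hydrogen peroxide oxidative stress; compound pretreatment for 60 min then peroxide exposure for 2 h; potency is for protecting the cells against peroxide damage rather than for killing them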
cells [5] = format: functional, cell-based
cells [6] = format: functional, cell-based; remark: listed apart in the source
[7] = Luminescence Cell-Based Dose Response HTS to Identify Activators of Luciferase Translation or Activity in H4 […] Cells. [Related pubchem assays: 1829 (Project Summary), 1814 (Primary HTS)]; format: functional
[8] = Luminescence Cell-Based Dose Confirmation HTS to Identify Activators of 5'UTR Stem-Loop Driven Alpha-Synuclein mRNA Translation in H4 Neuroglioblastoma Cells. [Related pubchem assays: 1829 (Project Summary), 1814 (Primary HTS)]; format: functional
H4 = experiment: Luminescence Cell-Based Dose Response HTS to Identify Activators of 5'UTR Stem-Loop Driven Prion Protein mRNA Translation in H4 Neuroglioblastoma Cells. [Related pubchem assays: 1829 (Project Summary), 1814 (Primary HTS)]; format: functional; settings: Homo sapiens
[9] = target: T1, Heat shock factor protein 1 (Mus musculus, UniProt P38532); experiment: inhibition of MG132-induced HSE-luciferase signal, confirmation, cell-based, NIH3T3, luminescence, dose retest (AID 2382); format: functional;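 note: NIH3T3 fibroblasts with HSF1-driven luciferase reporter stressed by proteasome inhibitor MG132; luminescence from HSF1-driven luciferase expression after 8 hours of MG132 stress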
T1 sequence (P38532 whole entry): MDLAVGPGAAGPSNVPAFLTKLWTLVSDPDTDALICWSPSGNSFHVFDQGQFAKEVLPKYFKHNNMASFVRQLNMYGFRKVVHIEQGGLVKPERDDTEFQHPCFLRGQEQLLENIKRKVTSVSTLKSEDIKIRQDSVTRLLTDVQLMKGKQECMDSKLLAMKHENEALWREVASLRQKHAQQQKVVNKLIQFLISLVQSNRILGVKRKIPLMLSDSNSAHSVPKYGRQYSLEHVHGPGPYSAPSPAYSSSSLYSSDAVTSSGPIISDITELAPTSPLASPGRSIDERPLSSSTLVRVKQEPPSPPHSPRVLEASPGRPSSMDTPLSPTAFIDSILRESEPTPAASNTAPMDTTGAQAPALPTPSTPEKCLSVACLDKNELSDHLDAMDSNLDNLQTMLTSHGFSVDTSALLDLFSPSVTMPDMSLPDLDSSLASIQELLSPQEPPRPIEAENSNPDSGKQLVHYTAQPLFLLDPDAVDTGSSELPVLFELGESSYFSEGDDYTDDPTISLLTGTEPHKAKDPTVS

[10] = inhibitors of SNCA 5'UTR-driven reporter translation, confirmation, H4 neuroglioma cells, luminescence (AID 1988); format: functional, cell-based
[11] = inhibitors of firefly luciferase expression or activity, dose response, H4 neuroglioma cells, luminescence (AID 1990); format: functional, cell-based
[12] = Luminescence Cell-Based Dose Response HTS to Identify Inhibitors of 5'UTR Stem-Loop Driven Prion Protein mRNA Translation in H4 Neuroglioblastoma Cells. [Related pubchem assays: 1827 (Project Summary), 1813 (Primary HTS)]; format: functional
INS1 = experiment: beta cell apoptosis inhibitors, cytokine rescue, dose response, luminescence, retest (AID 449756); format: functional, cell-based; settings: Rattus norvegicus;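 note: cell death triggered by IL-1 beta plus TNF-alpha plus IFN-gamma mixture; protective hits raise ATP signal compared with cytokine alone wells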
[13] = inhibitors of intracellular T. cruzi replication, confirmation, NIH3T3 host cells, beta-gal luminescence (AID 2044); format: functional, cell-based;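 note: intracellular parasites grown in NIH/3T3 mouse fibroblasts as host cells; luminescent beta-galactosidase reporter signal from transgenic T. cruzi replicating inside host cells; inhibitors lower the luminescence signal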
[14] = cytotoxicity toward NIH3T3 fibroblasts, dose response, counter-screen, cell-based, ATP luminescence, mouse fibroblasts (AID 2010); format: functional;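 note: cells exposed to compound for about 90 hours before reading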
[15] = target: T2, Replicative DNA helicase DnaB (Mycobacterium tuberculosis, UniProt P9WMR3); experiment: DnaB intein splicing inhibitors, dose response, biochemical, cell-free fluorescence (AID 449749); format: functional
T2 sequence (P9WMR3 whole entry): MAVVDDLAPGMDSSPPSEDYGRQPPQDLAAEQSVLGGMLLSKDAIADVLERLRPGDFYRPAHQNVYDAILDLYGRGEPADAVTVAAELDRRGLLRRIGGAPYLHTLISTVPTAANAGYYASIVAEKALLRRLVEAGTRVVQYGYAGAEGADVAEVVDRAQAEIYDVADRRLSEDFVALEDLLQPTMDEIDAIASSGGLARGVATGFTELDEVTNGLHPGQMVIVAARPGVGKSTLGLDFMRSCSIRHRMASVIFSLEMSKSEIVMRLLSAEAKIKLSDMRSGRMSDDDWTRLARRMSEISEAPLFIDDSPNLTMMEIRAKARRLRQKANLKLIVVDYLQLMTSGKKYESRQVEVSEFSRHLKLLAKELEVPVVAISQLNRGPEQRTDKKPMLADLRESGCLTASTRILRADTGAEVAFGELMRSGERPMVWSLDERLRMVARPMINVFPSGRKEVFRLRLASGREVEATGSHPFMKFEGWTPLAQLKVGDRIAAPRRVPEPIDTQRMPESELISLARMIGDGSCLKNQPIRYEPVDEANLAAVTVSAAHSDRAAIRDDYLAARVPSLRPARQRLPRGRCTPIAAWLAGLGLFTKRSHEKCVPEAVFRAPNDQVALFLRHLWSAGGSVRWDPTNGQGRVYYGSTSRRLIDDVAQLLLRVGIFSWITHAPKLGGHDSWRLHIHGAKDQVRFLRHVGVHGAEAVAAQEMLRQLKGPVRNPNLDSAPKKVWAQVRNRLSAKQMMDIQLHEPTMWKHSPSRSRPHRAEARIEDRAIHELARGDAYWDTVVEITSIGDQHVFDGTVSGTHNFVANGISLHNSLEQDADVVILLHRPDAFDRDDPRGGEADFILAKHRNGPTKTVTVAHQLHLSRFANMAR

Protein RecA = target: T3, Protein RecA (Mycobacterium tuberculosis, UniProt P9WHJ3); experiment: Fluorescence Cell-Free Homogeneous Dose Retest to Identify Inhibitors of RecA-Intein Splicing Activity. [Related pubchem assays (depositor defined):AID2097, AID2223, AID489010, AID492950]; format: functional
T3 sequence (P9WHJ3 whole entry): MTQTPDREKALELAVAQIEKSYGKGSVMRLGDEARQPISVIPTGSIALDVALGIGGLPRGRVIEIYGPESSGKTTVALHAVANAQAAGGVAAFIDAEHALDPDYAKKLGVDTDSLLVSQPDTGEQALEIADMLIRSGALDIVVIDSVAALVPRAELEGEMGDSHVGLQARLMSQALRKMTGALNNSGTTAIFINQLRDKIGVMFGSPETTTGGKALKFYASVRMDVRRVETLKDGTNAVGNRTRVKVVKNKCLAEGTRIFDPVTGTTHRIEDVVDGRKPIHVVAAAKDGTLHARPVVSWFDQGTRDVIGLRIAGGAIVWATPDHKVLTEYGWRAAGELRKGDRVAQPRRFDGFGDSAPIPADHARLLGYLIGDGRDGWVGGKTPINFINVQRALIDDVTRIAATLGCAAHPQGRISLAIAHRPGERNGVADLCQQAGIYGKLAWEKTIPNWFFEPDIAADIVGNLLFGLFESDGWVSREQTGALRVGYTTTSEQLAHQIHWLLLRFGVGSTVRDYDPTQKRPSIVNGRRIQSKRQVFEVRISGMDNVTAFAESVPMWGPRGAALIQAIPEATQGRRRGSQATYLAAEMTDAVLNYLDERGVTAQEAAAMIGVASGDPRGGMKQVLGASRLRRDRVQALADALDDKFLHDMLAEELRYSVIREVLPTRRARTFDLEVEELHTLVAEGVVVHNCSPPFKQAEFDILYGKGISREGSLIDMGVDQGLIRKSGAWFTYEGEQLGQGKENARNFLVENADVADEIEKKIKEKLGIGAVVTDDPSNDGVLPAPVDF

For COc1ccc(/C=C2\CN(Cc3ccccc3)C/C(=C\c3ccc(OC)cc3)C2=O)cc1, the EC50 [1] was 5.52 µM (active) and the EC50 [2] was 6.02 µM (active).
With CCOc1nc(NCCc2ccc(OC)c(OC)c2)nc(N2CCN(c3ccc(OC)cc3)CC2)n1 the EC50 [1] was 10.5 µM (active) and the EC50 [2] was 6.42 µM (active).
With CSCCC1NC2(C(=O)Nc3c(C)cc(Cl)cc32)[C@@H]2C(=O)N(C3CCCC3)C(=O)[C@H]12 (stereo not given in full) the EC50 [3] was > 38 µM (not active) and the EC50 [4] was > 150 µM (inactive).
With CCOC(=O)CSc1nc(O)c2ccccc2n1 the IC50 (H9c2) was > 79 µM (inactive).
In the case of O=C(NN=C(S)Nc1ccc(Cl)cc1)c1ccccc1OC(F)F, the EC50 [3] is reported as 6.72 µM (active) and the EC50 [4] is reported as 72.6 µM (active).
In the case of CC1CC(C)CN(S(=O)(=O)c2ccc3c(c2)oc(=O)n3CC(=O)NCCCOC(C)C)C1 (stereo not given), the EC50 (cells [5]) is reported as > 350 µM (not active) and the EC50 (cells [6]) is reported as > 350 µM (not active).
With O=C(NN=Cc1cccc([N+](=O)[O-])c1)c1cc(-c2cccnc2)nc2ccccc12 the IC50 (H9c2) was > 79 µM (inactive).
For COc1ccc2nc(O)c(CN(c3ccccc3OC)S(=O)(=O)c3ccccc3)cc2c1, the EC50 [7] was 14.3 µM (active), the EC50 [8] was > 120 µM (not active) and the EC50 (H4) was > 120 µM (not active). The IC50 (H9c2) was 13.3 µM (active).
With COc1cccc(NC(=O)c2ccc3nc(C)sc3c2)c1 the EC50 [3] was 1.53 µM (active) and the EC50 [4] was > 160 µM (inconclusive).
For Fc1ccc(-n2cc(-c3ccccc3)c3c(N4CCOCC4)ncnc32)cc1, the EC50 [9] was 2.3 µM (active) and the IC50 (H9c2) was > 79 µM (inactive).
With CCn1c(O)c(/C=N/N=C2CCCCC2)c2cc(C3=NNC(=O)CC3)ccc21 the IC50 (H9c2) was > 79 µM (inactive).
With O=C(O)c1ccccc1OCCOc1ccccc1C(=O)O the EC50 (cells [5]) was > 350 µM (not active) and the EC50 (cells [6]) was > 350 µM (not active).
With COc1cc(C(=O)O/N=C2/C=CC(=O)C(C)=C2C)cc(OC)c1OC the EC50 [1] was 19 µM (active) and the EC50 [2] was 18.3 µM (active).
In the case of COC(=O)CNC(=O)CSc1nnc2cc(C)c3ccccc3n12, the EC50 (cells [5]) is reported as > 350 µM (not active) and the EC50 (cells [6]) is reported as > 350 µM (not active).
For c1ccc2c(c1)CSc1ccccc1N2, the EC50 [10] was > 120 µM (not active), the EC50 [11] was > 120 µM (not active) and the EC50 [12] was > 120 µM (not active).
With Cc1cccc(C2c3[nH]c4ccccc4c3CCN2C(=O)c2cc(-c3cccn3C)[nH]n2)n1 (stereo not given) the EC50 [3] was 3.22 µM (active) and the EC50 [4] was > 160 µM (inconclusive).
With Cc1cnc(NC(=O)CSc2nc(O)c3ccccc3n2)s1 the IC50 (H9c2) was > 79 µM (inactive).
For COc1ccc(-c2[nH]nc(C)c2-c2cnn(-c3ccccc3)c2)c(O)c1, the EC50 [3] was 3.77 µM (active) and the EC50 [4] was > 160 µM (inactive).
For CC(C)OC(=O)/C(C#N)=C/c1cn(Cc2ccccc2)c2ccccc12, the EC50 [10] was 7.08 µM (active), the EC50 [11] was 11.5 µM (active) and the EC50 [12] was 13.4 µM (active).
With CSc1ccccc1NC(=O)c1ccc(N2CC3CC(C2)c2cccc(=O)n2C3)c(NC(=O)c2cccnc2)c1 (stereo not given) the EC50 [10] was > 120 µM (not active), the EC50 [11] was > 120 µM (not active) and the EC50 [12] was > 120 µM (not active).
For O=Nc1c(O)n(Cc2cccc(C(F)(F)F)c2)c2ccccc12, the EC50 [3] was 1.89 µM (active) and the EC50 [4] was > 160 µM (inactive).
For Cc1ccc(CNC(=O)CCc2nc(O)c3ccccc3n2)cc1, the IC50 (H9c2) was 12.5 µM (active).
With Cn1c(SCC(=O)Nc2ccccc2)nnc1-c1ccc(NC(=O)CCc2ccccc2)cc1 the EC50 (cells [5]) was > 350 µM (not active) and the EC50 (cells [6]) was > 350 µM (not active).
In the case of O=C(N/N=C/c1ccccc1O)/C(=C/c1ccccc1)CCO, the EC50 (cells [5]) is reported as > 350 µM (not active), the AC50 (INS1) is reported as 2.57 µM (active) and the EC50 (cells [6]) is reported as 50.4 µM (active).
For Fc1ccc(-c2cc3nc(-c4ccccc4)cc(N4CCN(CCN5CCOCC5)CC4)n3n2)cc1, the EC50 [13] was 4.9 µM (active), the EC50 [1] was 85 µM (active) and the EC50 [2] was 71.2 µM (active). The EC50 [14] was 7.58 µM (active).
With O=Cc1ccc(Sc2nnc(-c3ccccc3)o2)c([N+](=O)[O-])c1 the EC50 [1] was 18.1 µM (active), the EC50 [2] was 21.4 µM (active) and the AC50 [15] was 9.51 µM (active). For the same compound, the EC50 (Protein RecA) was 5.46 µM (active).
In the case of O=C(Nc1ccc2nc(N3CCOCC3)sc2c1)c1cc2ccccc2o1, the IC50 (H9c2) is reported as > 79 µM (inactive).
With COc1cc(/C=N/NC(=O)NC23CC4CC(CC(C4)C2)C3)ccc1OCC(N)=O the IC50 (H9c2) was > 79 µM (inactive).
With COc1cc(-c2cc(C(=O)N3CCN(c4ccccn4)CC3)c3ccccc3n2)cc(OC)c1OC the IC50 (H9c2) was > 79 µM (inactive).
For NC(=O)c1nsc(C(=O)N(c2ccccc2)C(C(=O)NCc2ccc(F)cc2)c2ccc(O)cc2)c1N (stereo not given), the IC50 (H9c2) was > 79 µM (inactive).
For O=C1c2ccccc2C(=O)N1CCCCN(C(=O)c1cc2ccccc2oc1=O)c1ccc(F)cc1F, the EC50 [10] was > 120 µM (not active), the EC50 [11] was > 120 µM (not active) and the EC50 [12] was > 120 µM (not active).
In the case of COc1ccc(CN2C(=O)NC(=O)/C(=C\NNC(=O)c3ccccc3)C2=O)cc1, the EC50 [4] is reported as 56 µM (active).
With CCc1cc(=O)oc2cc(OC(C)C(=O)NCC(O)c3ccccc3)c(Cl)cc12 (stereo not given) the EC50 [10] was > 120 µM (not active), the EC50 [11] was > 120 µM (not active) and the EC50 [12] was > 120 µM (not active).
With Nc1ccnn1-c1ccccc1 the EC50 (cells [5]) was > 350 µM (not active) and the EC50 (cells [6]) was > 350 µM (not active).
